Series [1] in a line: Pharmacokinetic evaluation in ICR mice. Type of series: in vivo. Particulars: mouse, plasma, po; for AUC(0-t) / Cmax / half-life: 5 mg/kg; for bioavailability: p.o. 5 mg/kg vs i.v. 1 mg/kg, read-out: Oral bioavailability (F).
The test system of series [2] is inflammatory factor IL-17. The series is described as follows: LPS-induced mouse blood inflammatory factor IL-17 model. Type of series: in vivo, BALB/c mice.
Series [3] can be described thus: Stability in human liver microsomes. Type of series: in vitro ADME. Particulars: for half-life at 1.5 μM: pH 7.4, 0.5 mg protein/mL, 1.5 μM compound, 37° C., NADPH, read-out: Human Half-life t1/2; for CLint scaled at 1.5 μM: pH 7.4, intrinsic hepatic clearance inferred from microsomal incubation, read-out: Human Clearance rate.
Series [4] concerns rat liver microsomes. Nature of the series: Stability in rat liver microsomes. Particulars: 0.5 mg protein/mL, 1.5 μM compound, 37° C., NADPH. Type of series: in vitro ADME.
The target in series [5] is T1, RORγt (Homo sapiens, UniProt P51449).
T1 construct: […]
T1 sequence (P51449 269-508 limits assumed): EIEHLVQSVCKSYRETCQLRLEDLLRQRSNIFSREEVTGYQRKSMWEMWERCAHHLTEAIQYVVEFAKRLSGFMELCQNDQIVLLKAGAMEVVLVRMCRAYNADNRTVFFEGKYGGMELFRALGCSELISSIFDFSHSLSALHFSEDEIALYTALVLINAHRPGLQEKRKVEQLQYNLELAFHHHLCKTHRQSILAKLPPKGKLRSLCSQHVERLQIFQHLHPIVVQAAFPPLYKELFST
The series is described as follows: Fluorescence resonance energy transfer (FRET) test, inhibitory activity of RORγt. Particulars: FRET, B-RORγt LBD / Biotin-SRC1; read-out: IC50. In kind it is biochemical.

Series [6] concerns IMQ-induced mouse psoriasis model. The series is described as follows: IMQ-induced mouse psoriasis model, ear weight. Type of series: in vivo, c57bl/6 mice. Particulars: for Effect on the ear weight of mice compared with the model group: P<0.05.
In series [7] the test system is inflammatory factor IL-17. Nature of the series: IMQ-induced mouse psoriasis model, IL-17 in the ear. In kind it is in vivo, c57bl/6 mice. Particulars: for Inhibition rate (IL-17 in the ear) / IL-17 Concentration (pg/μg protein): 90 mg/kg; for IL-17 Concentration (pg/μg protein): ear homogenate supernatant, model group 29.78, normal group 0.00; for Effect on the secretion of IL-17 in the ear of mice compared with the model group: P<0.05.

Series [8] is described as follows: Stability in rat liver microsomes. Particulars: rat, liver microsomes, pH 7.4. In kind it is in vitro ADME.
Where [9] appears, read: Table 7, 30 mg/kg, plasma 4 hours after LPS, model group 174.69.
Setting [10] is: 90 mg/kg, oral gavage, 10 days modeling, model group 28.12, normal group 13.03.
Setting [11] is: Table 8, 15 mg/kg, plasma 4 hours after LPS, model group 81.33.

The structures appear in SMILES notation. Marks after values point to notes of the source that are not given here.

With `CCS(=O)(=O)c1ccc([C@H](CC#N)NC(=O)c2ccc(N3CC(Oc4ccc(C(F)(F)F)cn4)C[C@H]3COC(F)F)cc2)cc1` (stereo in doubt) [Example 65, N-((S)-2-cyano-1-(4-(ethylsulfonyl)phenyl)ethyl)-4-((2S,4S)-2-((difluoromethoxy)methyl)-4-((5-(trifluoromethyl)pyridine-2-yl)oxy)pyrrolidin-1-yl)benzamide], in series [1], the AUC(0-t) was found to be 78 µM·h, the Cmax is 7 µM, the half-life is 7.9 h and the bioavailability turned out to be 82%. For the same compound, the “Effect on LPS-induced mouse blood inflammatory factor IL-17” value in series [2] is “significantly reduce”. For the same compound, the Inhibition rate % in series [2] (Table 7, 30 mg/kg) is recorded as 63%. The “IL-17 (pg/ml)” value in series [2] (setting [9]) is listed as 61.71 ** pg/ml. Besides, in series [3], the half-life at 1.5 μM was 1.34 h and the CLint scaled at 1.5 μM amounted to 21.6 mL/min/kg. The “Rat Half-life t1/2 (min)” value in series [4] is reported as “Not metabolized”.

`CCS(=O)(=O)c1ccc([C@H](CC#N)NC(=O)c2ccc(N3C[C@@H](Oc4ccc(OC(F)F)cc4)C[C@H]3COC(F)F)cc2)cc1` [Example 22, N-((S)-2-cyano-1-(4-(ethylsulfonyl)phenyl)ethyl)-4-((2S,4S)-2-((difluoromethoxy)methyl)-4-(4-(difluoromethoxy)phenoxy)pyrrolidin-1-yl)benzamide]: in series [5], the IC50 amounted to 9 nM. In addition, in series [1], the AUC(0-t) amounted to 37 µM·h, the concentration peaked (Cmax) at 4.8 µM, the half-life is 3.6 h and the bioavailability was determined as 80%. The “Inhibition rate % (ear weight)” value in series [6] (90 mg/kg, oral gavage) stood at 2%. For the same compound, the “Average ear weight” value in series [6] (setting [10]) was 28.12 mg. Further, in series [7], the “Inhibition rate (IL-17 in the ear)” value turned out to be 40.08%, the “IL-17 Concentration (pg/μg protein)” value is given as 17.85 * pg/μg protein and the “Effect on the secretion of IL-17 in the ear of mice compared with the model group” value was “significantly reduce”. Besides, the “Effect on LPS-induced mouse blood inflammatory factor IL-17” value in series [2] is recorded as “a certain tendency to inhibit”. This compound had an Inhibition rate % in series [2] (Table 8, 15 mg/kg) of 10.55%. The “IL-17” value in series [2] (setting [11]) came out at 72.12 pg/mL. Moreover, in series [3], the half-life at 1.5 μM amounted to 3.98 h and the CLint scaled at 1.5 μM is 7.3 mL/min/kg. In addition, in series [4], the “Rat Half-life t1/2 (min)” value is “Not metabolized”.

Consider `CCS(=O)(=O)c1ccc([C@H](CC#N)NC(=O)c2ccc(N3C[C@@H](Oc4ccc(C(F)(F)F)cc4)C[C@H]3COC(F)F)cc2)cc1` [Example 47, N—((S)-2-cyano-1-(4-(ethylsulfonyl)phenyl)ethyl)-4-((2S,4S)-2-((difluoromethoxy)methyl)-4-(4-(trifluoromethyl)phenoxy)pyrrolidin-1-yl)benzamide], for which the IC50 in series [5] was determined as 10 nM. In addition, the AUC(0-t) in series [1] came to 23.5 µM·h. Besides, in series [1], the Cmax came to 2.4 µM. Also, the half-life in series [1] is 11.1 h. In addition, in series [1], the bioavailability came to 66%. Further, the “Inhibition rate % (ear weight)” value in series [6] (90 mg/kg, oral gavage) turned out to be 19%. For the same compound, in series [6] (setting [10]), the “Average ear weight (mg)” value is 25.20* mg. The “Effect on the ear weight of mice compared with the model group” value in series [6] is given as “significantly reduce”. Also, in series [7], the “Inhibition rate (IL-17 in the ear)” value is reported as 55.38%. The “IL-17 Concentration (pg/μg protein)” value in series [7] is recorded as 13.29 ** pg/μg protein. Also, the “Effect on the secretion of IL-17 in the ear of mice compared with the model group” value in series [7] is given as “significantly reduce”. Besides, in series [2], the “Effect on LPS-induced mouse blood inflammatory factor IL-17” value is “significantly reduce”. Also, the Inhibition rate % in series [2] (Table 6, 15 mg/kg) is listed as 25.22%; in series [2] (Table 7, 30 mg/kg) it was 51%; in series [2] (Table 8, 15 mg/kg) it was 28.21%. Besides, the “IL-17 (pg/ml)” value is listed as 104.98 * pg/ml in series [2] (Table 6, 15 mg/kg, plasma 4 hours after LPS, model group 141.35); 83.18 * pg/ml in series [2] (setting [9]); 56.69 ** pg/ml in series [2] (setting [11]). The half-life at 1.5 μM was found to be 3.5 h in series [3] and 22.4 h in series [8] (0.5 mg protein/mL, 1.5 μM compound, 37° C., NADPH, read-out: Rat Half-life t1/2). Also, the CLint scaled at 1.5 μM in series [3] was found to be 8.3 mL/min/kg; in series [8] (intrinsic hepatic clearance inferred from microsomal incubation, read-out: Rat Clearance rate) it was 1.9 mL/min/kg.

Consider `CCS(=O)(=O)c1ccc([C@H](CC#N)NC(=O)c2ccc(N3CC(Oc4ccc(OC(F)(F)F)cc4)C[C@H]3COC(F)F)cc2)cc1` (stereo in doubt) [Example 64, N-((S)-2-cyano-1-(4-(ethylsulfonyl)phenyl)ethyl)-4-((2S,4S)-2-((difluoromethoxy)methyl)-4-(4-(trifluoromethoxy)phenoxy)pyrrolidin-1-yl)benzamide], for which, in series [5], the IC50 was 11 nM. Besides, in series [1], the AUC(0-t) was found to be 47.2 µM·h, the Cmax worked out at 3.33 µM, the half-life was 13.2 h and the bioavailability stood at 91%. The “Inhibition rate % (ear weight)” value in series [6] (90 mg/kg, oral gavage) was 22%. Besides, the “Average ear weight (mg)” value in series [6] (setting [10]) was 24.84* mg. The “Effect on the ear weight of mice compared with the model group” value in series [6] is reported as “significantly reduce”. Also, in series [7], the “Inhibition rate (IL-17 in the ear)” value amounted to 72.47%, the “IL-17 Concentration (pg/μg protein)” value is 8.20 ** pg/μg protein and the “Effect on the secretion of IL-17 in the ear of mice compared with the model group” value is given as “significantly reduce”. Besides, the “Effect on LPS-induced mouse blood inflammatory factor IL-17” value in series [2] is “significantly reduce”. The compound also showed an Inhibition rate % in series [2] (Table 7, 30 mg/kg) of 65%. In addition, in series [2] (setting [9]), the “IL-17 (pg/ml)” value is given as 58.48 ** pg/ml. Further, the “Rat Half-life t1/2 (min)” value in series [4] is given as “Not metabolized”.

Regarding `CCS(=O)(=O)c1ccc([C@H](CC#N)NC(=O)c2ccc(N3C[C@@H](Oc4ccc(OC)nc4)C[C@H]3COC(F)F)cc2)cc1` [Example 10, N-((S)-2-cyano-1-(4-(ethylsulfonyl)phenyl)ethyl)-4-((2S,4S)-2-((difluoromethoxy)methyl)-4-((6-methoxypyridine-3-yl)oxy)pyrrolidin-1-yl)benzamide], the IC50 in series [5] stood at 19 nM.
